For one experiment, the system named is MDA-MB-435 cancer cells. Briefly: antiproliferative sulforhodamine B assay (SRB assay), MDA-MB-435. It counts as cell-based. The following applies: Homo sapiens.
Experiment [1] has as its system cellular microtubules in A-10 cells. Put plainly: cellular microtubule depolymerization, cell-based phenotypic assay. The following applies: Rattus norvegicus.
Experiment [2] concerns KB human tumor cells (RFC/FRα/PCFT). Briefly: growth inhibition, KB tumor cells. It counts as cell-based. An excerpt:
The experiments with the CHO sublines were extended to KB human nasopharengeal carcinoma cells which express highly elevated FRα, along with RFC and PCFT.

Experiment [3] deals with PC43-10 CHO cells expressing human RFC. Put plainly: growth inhibition, CHO PC43-10 (human RFC). It counts as cell-based, Chinese hamster.
For experiment [4], the system named is RT16 CHO cells expressing human FRα. Briefly: growth inhibition, CHO RT16 (FRα). The experiment is classed as cell-based, Chinese hamster.
For experiment [5], the system named is R2/PCFT4 CHO cells expressing human PCFT. Briefly: growth inhibition, CHO R2/PCFT4 (PCFT). It counts as cell-based, Chinese hamster. The following applies: Section III Table 1.
In experiment [6] the test system is D4 CHO cells expressing FRβ. Put plainly: growth inhibition, CHO D4 (FRβ). The experiment is classed as cell-based, Chinese hamster.
Experiment [7] relates to RT16 CHO cells expressing human FRα. The note with it: cited from earlier work.
Experiment [8] has as its system R2(VC) CHO cells (transporter-null). Put plainly: growth inhibition, vector control R2(VC) CHO cells. It counts as cell-based, Chinese hamster. The note with it: Cricetulus griseus, Section IV Table 1.
Where [9] appears, read: MDA-MB-435, Section VII Table 2, read-out: IC50 ± SD (MDA-MB-435) Tumor cells.
[10] abbreviates: Section VII Table 1, read-out: IC50 ± SD in MDA-435 Cells.
Where [11] appears, read: A10, Section VII Table 1, read-out: EC50 for Microtubule Depolymerization in A-10 Cells.
Where [12] appears, read: A10, Section VII Table 2, read-out: EC50 in A-10 cells (Tubulin polymerization inhibitory activity).
Where [13] appears, read: Homo sapiens, PC43-10, Section III Table 1.
Where [14] appears, read: Section IV Table 1, +FA, read-out: KB (+FA) IC50.
Setting [15] is: Section IV Table 1, read-out: KB IC50 (RFC/FRα/PCFT).
[16] abbreviates: Section IV Table 1, +FA, read-out: RT16 (+FA) IC50.
The mark [17] stands for this setting: Section IV Table 1, read-out: RT16 IC50 (FRα).
Setting [18] is: MDA-MB-435, Section VIII Table 1, read-out: IC50 + SD (MDA-MB-435) cancer cells.
Setting [19] is: A10, Section VIII Table 1, read-out: EC50 in A-10 cells (Loss of cellular microtubules).
Setting [20] is: MDA-MB-435, read-out: IC50 ± SD (MDA-MB-435) Tumor cells.
Where [21] appears, read: read-out: IC50 ± SD in MDA-435 Cells.
[22] abbreviates: A10, read-out: EC50 for Microtubule Depolymerization in A-10 Cells.
[23] abbreviates: A10, read-out: EC50 in A-10 cells (Loss of cellular microtubules).
Setting [24] is: A10, read-out: EC50 in A-10 cells (Tubulin polymerization inhibitory activity).

The values below come from US10457688B2, “Monocyclic thieno, pyrido, and pyrrolo pyrimidine compounds and methods of use and manufacture of same” (Duquesne University of the Holy Spirit, priority 2015, dated 2019).

Each structure is given as a SMILES string. Where two headings read alike, the source gives them in different places. A value given as a limit tells only on which side of the number the result lay.

For the compound `COc1cccc2cc(N(C)c3nc(C)nc4ccsc34)ccc12` [Compound 10], the IC50 in the experiment with MDA-MB-435 cancer cells (setting [9]) and in the experiment with MDA-MB-435 cancer cells (setting [10]) was 1.7 ± 0.2 nM throughout. For the same compound, the half-maximal effective concentration (EC50) in experiment [1] (setting [11]) and in experiment [1] (setting [12]) was 3 nM each time.
For the compound `Nc1nc2[nH]cc(CCc3ccc(C(=O)N[C@@H](CCC(=O)O)C(=O)O)cc3)c2c(=O)[nH]1` [PMX, pemetrexed, reference compound], the IC50 is 9.94 nM in [2] (Homo sapiens, Section III Table 1, read-out: KB IC50 (RFC/FRα/PCFT)) and 30.6 nM in [3] (setting [13]).
As to `CSc1ccc(Nc2nc(C)nc3cc[nH]c23)cc1` [compound 3], the IC50 in the experiment on MDA-MB-435 cancer cells (setting [9]) and in the experiment with MDA-MB-435 cancer cells (setting [10]) was 2100 ± 70 nM each time. For the same compound, the 50% effective concentration (EC50) in experiment [1] (setting [11]) and in [1] (setting [12]) was 25000 nM each time.
`Nc1nc2[nH]c(CCOc3cccc(C(=O)N[C@@H](CCC(=O)O)C(=O)O)c3)cc2c(=O)[nH]1` [AGF220]: the IC50 in experiment [2] (setting [14]) is more than 1000 nM; in experiment [2] (setting [15]), 13.1 nM; in [3] (Section IV Table 1), more than 1000 nM; in experiment [4] (setting [16]), more than 1000 nM; in experiment [4] (setting [17]), 30.3 nM.
Take `COc1ccc(N(C)c2nc(C)nc3sc(C)c(C)c23)cc1` [Compound 8]: in the experiment with MDA-MB-435 cancer cells (setting [18]), the IC50 was 10.7 ± 1 nM. The EC50 in [1] (setting [19]) was 18 nM.
Consider `CSc1ccc(N(C)c2ncnc3ccsc23)cc1` [Compound 6], for which the IC50 with MDA-MB-435 cancer cells (setting [9]) was found to be 28.2 ± 5.5 nM; in the experiment with MDA-MB-435 cancer cells (setting [10]) it was 28.2 ± 5.5 nM; in experiment [3] (setting [13]), 207 nM; in [5], 8.23 nM. The 50% effective concentration (EC50) in experiment [1] (setting [11]) and in experiment [1] (setting [12]) was 707 nM each time.
With `COc1ccc2c(c1)OCCN2c1nc(C)nc2sc(C)c(C)c12` [Compound 11], the EC50 in experiment [1] (setting [19]) was 1200 nM.
For the compound `COc1ccc2c(c1)CCCN2c1nc(C)nc2sc(C)c(C)c12` [Compound 10], in experiment [1] (setting [19]), the EC50 was more than 10000 nM.
Regarding `CSc1ccc(N(C)c2nc(C)nc3cc[nH]c23)cc1` [Compound 4], the IC50 worked out at 4 ± 0.5 nM in the experiment on MDA-MB-435 cancer cells (MDA-MB-435, read-out: IC50 + SD (MDA-MB-435) cancer cells); 4.4 ± 0.2 nM in the experiment on MDA-MB-435 cancer cells (setting [20]); 4.4 ± 0.2 nM in the experiment with MDA-MB-435 cancer cells (setting [21]); 6.13 nM in experiment [2] (Homo sapiens, read-out: KB IC50 (FRα/PCFT/RFC)); 1.72 nM in experiment [4] (Cricetulus griseus, RT16, read-out: R16 IC50 (FRα)); 6.11 nM in [6] (Cricetulus griseus, CHO, read-out: D4 IC50 (FRβ)). Moreover, the figures for the concentration giving a half-maximal response (EC50) in experiment [1] (setting [22]), in [1] (setting [23]) and in [1] (setting [24]) were 42 nM, 10 nM and 42 nM, respectively.
On to `Nc1nc2[nH]c(CCCc3ccc(C(=O)N[C@@H](CCC(=O)O)C(=O)O)cc3)cc2c(=O)[nH]1` [AGF17], for which the “selectivity for FR transport over RFC” value in experiment [7] is recorded as 25 fold.
With `COc1ccc(N(C)c2nc(C)nc3cc[nH]c23)cc1` [compound 1], the results for the IC50 with MDA-MB-435 cancer cells (setting [9]) and with MDA-MB-435 cancer cells (setting [10]) were 96.6 ± 5.3 nM and 96.6 nM, respectively.
Consider `CSc1ccc(N(C)c2nc(C)nc3sc(C)c(C)c23)cc1` [Compound 9], for which the IC50 in the experiment on MDA-MB-435 cancer cells (setting [18]) was found to be 34.8 ± 3.7 nM. For the same compound, the concentration giving a half-maximal response (EC50) in experiment [1] (setting [19]) amounted to 128 nM.
`CN(Cc1cnc2nc(N)nc(N)c2n1)c1ccc(C(=O)N[C@@H](CCC(=O)O)C(=O)O)cc1` [MTX, methotrexate, reference compound]: the IC50 in experiment [8] was more than 1000 nM.
With `Cc1nc2ccc(CN(C)c3ccc(C(=O)N[C@@H](CCC(=O)O)C(=O)O)s3)cc2c(=O)[nH]1` [RTX, raltitrexed], the IC50 in experiment [8] is more than 1000 nM.
For the compound `COc1ccc(N(C)c2nc(C)nc3ccsc23)cc1` [compound 2], the IC50 in the experiment on MDA-MB-435 cancer cells (setting [20]) and with MDA-MB-435 cancer cells (setting [21]) was 7 ± 2.7 nM in each case. Also, the EC50 in experiment [1] (setting [22]) and in experiment [1] (setting [24]) was 27 nM each time.
For `COc1cccc2cc(N(C)c3nc(C)nc4sccc34)ccc12` [Compound 6], the IC50 in the experiment with MDA-MB-435 cancer cells (setting [18]) amounted to 3.8 nM. Further, the EC50 in experiment [1] (setting [19]) worked out at 2.5 nM.
With `COc1ccc2c(c1)CCCN2c1nc(C)nc2ccsc12` [Compound 7], the IC50 is 3.4 ± 0.9 nM in the experiment with MDA-MB-435 cancer cells (setting [9]); 3.4 ± 0.9 nM in the experiment on MDA-MB-435 cancer cells (setting [10]); 38.9 nM in [2] (Homo sapiens, Section VI Table 1, read-out: KB IC50 (FRα/PCFT/RFC)). Also, the EC50 in [1] (setting [11]) and in experiment [1] (setting [12]) was 8 nM throughout.
Turning to `Nc1nc2[nH]c(CCNc3cccc(C(=O)N[C@@H](CCC(=O)O)C(=O)O)c3)cc2c(=O)[nH]1` [AGF256], the IC50 in experiment [2] (setting [14]) was more than 1000 nM; in [2] (setting [15]), 14.8 nM; in experiment [3] (Section IV Table 1), more than 1000 nM; in experiment [4] (setting [16]), more than 1000 nM; in [4] (setting [17]), 15.9 nM; in experiment [6] (Section IV Table 1, +FA, read-out: D4 (+FA) IC50) it was more than 1000 nM. The IC50 in [6] (Section IV Table 1, read-out: D4 IC50 (FRβ)) was found to be 4.19 nM.
On to `CSc1ccc2c(c1)CCCN2c1ncnc2ccsc12` [Compound 8], for which the IC50 in the experiment on MDA-MB-435 cancer cells (setting [9]) and in the experiment on MDA-MB-435 cancer cells (setting [10]) was 3.8 ± 0.3 nM in each case. The half-maximal effective concentration (EC50) in [1] (setting [11]) and in [1] (setting [12]) was 22 nM in each case.
`COc1ccc(N(C)c2nc(C)nc3sccc23)cc1` [compound 3]: the IC50 in the experiment with MDA-MB-435 cancer cells (setting [18]) was found to be 7.6 nM. Also, the EC50 in experiment [1] (setting [19]) amounted to 15.4 nM.
For the compound `COc1ccc(Nc2nc(C)nc3sc(C)c(C)c23)cc1` [Compound 7], the EC50 in experiment [1] (setting [19]) was more than 10000 nM.
For the compound `CSc1ccc(Nc2nc(C)nc3sccc23)cc1` [compound 2], the EC50 in experiment [1] (setting [23]) was more than 10000 nM.
Regarding `COc1cccc2cc(N(C)c3ncnc4ccsc34)ccc12` [Compound 11], the IC50 in the experiment on MDA-MB-435 cancer cells (setting [20]) and in the experiment with MDA-MB-435 cancer cells (setting [21]) was 15.7 ± 2.2 nM throughout. In experiment [1] (setting [11]), the EC50 was 61 nM.
In the case of `COc1ccc2c(c1)OCCN2c1nc(C)nc2ccsc12` [Compound 9], in the experiment on MDA-MB-435 cancer cells (setting [10]), the IC50 is 109 nM. For the same compound, the EC50 in [1] (setting [11]) and in experiment [1] (setting [12]) was 237 nM each time.
